Experimental data: ChEMBL document CHEMBL6092203, “Discovery of Novel PROTAC-Based HPK1 Degraders with High Potency and Selectivity for Cancer Immunotherapy” (J Med Chem, 2024)

Columns and labels:
[1] = molecular target: Mitogen-activated protein kinase kinase kinase kinase 1 (Homo sapiens, UniProt Q92918); experiment: Induction of HPK1 (unknown origin) degradation
[2] = molecular target: Protein cereblon/Mitogen-activated protein kinase kinase kinase kinase 1 (Homo sapiens, UniProt Q92918+Q96SW2); experiment: PROTAC activity at CRBN/HPK1 in human Jurkat cells incubated for 24 hrs by Western blotting analysis; type: cell-based
MC-38 [3] = experiment: Antitumor activity against mouse MC38 cells implanted in C57BL/6J mouse assessed as tumor weight inhibition rate at 1 mg/kg, po BID measured after 4 weeks; type: functional; set-up: scale not given: the % may be the effect or the level left
MC-38 [4] = experiment: Synergistic antitumor activity against mouse MC38 cells implanted in C57BL/6J mouse assessed as tumor growth inhibition at 1 mg/kg, po bid measured after 4 weeks in presence of 5 mg/kg anti-PD1 and measured twice a week; type: functional; settings: MC-38, 672 h, read-out: TGI
MC-38 [5] = experiment: Antitumor activity against mouse MC38 cells implanted in C57BL/6J mouse assessed as tumor growth inhibition at 1 mg/kg, po BID measured after 4 weeks; type: functional; settings: MC-38, 672 h, read-out: TGI
MC-38 [6] = experiment: Antitumor activity against mouse MC38 cells implanted in C57BL/6J mouse assessed as reduction in tumor volume at 1 mg/kg, po BID administered for 3 to 4 weeks (reference value: 1549.22 +/- 217.92 mm3); type: functional; settings: time 3-4 weeks
MC-38 [7] = experiment: Antitumor activity against mouse MC38 cells implanted in C57BL/6J mouse assessed as reduction in tumor volume at 10 mg/kg, po BID administered for 3 to 4 weeks (reference value: 1549.22 +/- 217.92 mm3); type: functional; settings: time 3-4 weeks
MC-38 [8] = experiment: Antitumor activity against mouse MC38 cells implanted in C57BL/6J mouse assessed as reduction in tumor weight at 1 mg/kg, po BID administered for 3 to 4 weeks (reference value: 1.79 +/- 0.24 g); type: functional; settings: time 3-4 weeks
MC-38 [9] = experiment: Synergistic antitumor activity against mouse MC38 cells implanted in C57BL/6J mouse assessed as tumor weight inhibition rate at 1 mg/kg, po bid measured after 4 weeks in presence of 5 mg/kg anti-PD1 and measured twice a week; type: functional; set-up: scale not given: the % may be the effect or the level left
MC-38 [10] = experiment: Antitumor activity against mouse MC38 cells implanted in C57BL/6J mouse assessed as tumor growth inhibition at 10 mg/kg, po BID measured after 4 weeks; type: functional; settings: MC-38, 672 h, read-out: TGI
MC-38 [11] = experiment: Synergistic antitumor activity against mouse MC38 cells implanted in C57BL/6J mouse assessed as reduction in tumor volume at 1 mg/kg, po bid administered for 3 to 4 weeks in presence of 5 mg/kg anti-PD1 and measured twice a week (reference value: 1549.22 +/- 217.92 mm3); type: functional; settings: time 3-4 weeks
MC-38 [12] = experiment: Synergistic antitumor activity against mouse MC38 cells implanted in C57BL/6J mouse assessed as reduction in tumor weight at 1 mg/kg, po bid administered for 3 to 4 weeks in presence of 5 mg/kg anti-PD1 and measured twice a week (reference value: 1.79 +/- 0.24 g); type: functional; settings: time 3-4 weeks
MC-38 [13] = experiment: Antitumor activity against mouse MC38 cells implanted in C57BL/6J mouse assessed as reduction in tumor weight at 10 mg/kg, po BID administered for 3 to 4 weeks (reference value: 1.79 +/- 0.24 g); type: functional; settings: time 3-4 weeks
MC-38 [14] = experiment: Synergistic antitumor activity against mouse MC38 cells implanted in C57BL/6J mouse assessed as tumor growth inhibition at 10 mg/kg, po bid measured after 4 weeks in presence of 5 mg/kg anti-PD1 and measured twice a week; type: functional; settings: MC-38, 672 h, read-out: TGI
MC-38 [15] = experiment: Synergistic antitumor activity against mouse MC38 cells implanted in C57BL/6J mouse assessed as tumor weight inhibition rate at 10 mg/kg, po bid measured after 4 weeks in presence of 5 mg/kg anti-PD1 and measured twice a week; type: functional; set-up: scale not given: the % may be the effect or the level left
MC-38 [16] = experiment: Synergistic antitumor activity against mouse MC38 cells implanted in C57BL/6J mouse assessed as reduction in tumor volume at 10 mg/kg, po bid administered for 3 to 4 weeks in presence of 5 mg/kg anti-PD1 and measured twice a week (reference value: 1549.22 +/- 217.92 mm3); type: functional; settings: time 3-4 weeks
MC-38 [17] = experiment: Antitumor activity against mouse MC38 cells implanted in C57BL/6J mouse assessed as tumor weight inhibition rate at 10 mg/kg, po BID measured after 4 weeks; type: functional; set-up: scale not given: the % may be the effect or the level left
MC-38 [18] = experiment: Synergistic antitumor activity against mouse MC38 cells implanted in C57BL/6J mouse assessed as reduction in tumor weight at 10 mg/kg, po bid administered for 3 to 4 weeks in presence of 5 mg/kg anti-PD1 and measured twice a week (reference value: 1.79 +/- 0.24 g); type: functional; settings: time 3-4 weeks

Chain of Protein cereblon/Mitogen-activated protein kinase kinase kinase kinase 1 (Q92918 whole entry): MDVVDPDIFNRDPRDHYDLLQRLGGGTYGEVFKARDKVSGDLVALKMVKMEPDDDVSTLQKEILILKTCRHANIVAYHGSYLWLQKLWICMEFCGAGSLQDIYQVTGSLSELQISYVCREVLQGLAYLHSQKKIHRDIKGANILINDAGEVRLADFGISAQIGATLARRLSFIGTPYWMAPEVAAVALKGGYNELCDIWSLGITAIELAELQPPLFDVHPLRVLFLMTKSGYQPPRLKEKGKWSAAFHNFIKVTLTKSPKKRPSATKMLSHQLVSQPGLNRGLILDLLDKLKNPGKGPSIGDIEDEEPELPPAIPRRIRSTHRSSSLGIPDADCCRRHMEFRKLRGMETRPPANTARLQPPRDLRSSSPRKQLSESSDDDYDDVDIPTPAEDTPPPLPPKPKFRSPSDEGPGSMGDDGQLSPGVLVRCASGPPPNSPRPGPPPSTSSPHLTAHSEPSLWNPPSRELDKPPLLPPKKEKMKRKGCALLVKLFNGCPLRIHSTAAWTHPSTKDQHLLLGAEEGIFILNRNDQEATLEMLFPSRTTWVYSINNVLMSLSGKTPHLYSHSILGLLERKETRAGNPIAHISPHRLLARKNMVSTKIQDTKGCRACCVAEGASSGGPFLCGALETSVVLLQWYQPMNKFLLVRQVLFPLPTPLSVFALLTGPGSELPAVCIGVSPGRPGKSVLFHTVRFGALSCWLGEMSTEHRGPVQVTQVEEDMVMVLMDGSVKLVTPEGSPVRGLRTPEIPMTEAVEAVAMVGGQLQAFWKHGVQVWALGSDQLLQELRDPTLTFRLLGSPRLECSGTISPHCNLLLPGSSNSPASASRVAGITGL
Chain of Protein cereblon/Mitogen-activated protein kinase kinase kinase kinase 1 (Q96SW2 whole entry): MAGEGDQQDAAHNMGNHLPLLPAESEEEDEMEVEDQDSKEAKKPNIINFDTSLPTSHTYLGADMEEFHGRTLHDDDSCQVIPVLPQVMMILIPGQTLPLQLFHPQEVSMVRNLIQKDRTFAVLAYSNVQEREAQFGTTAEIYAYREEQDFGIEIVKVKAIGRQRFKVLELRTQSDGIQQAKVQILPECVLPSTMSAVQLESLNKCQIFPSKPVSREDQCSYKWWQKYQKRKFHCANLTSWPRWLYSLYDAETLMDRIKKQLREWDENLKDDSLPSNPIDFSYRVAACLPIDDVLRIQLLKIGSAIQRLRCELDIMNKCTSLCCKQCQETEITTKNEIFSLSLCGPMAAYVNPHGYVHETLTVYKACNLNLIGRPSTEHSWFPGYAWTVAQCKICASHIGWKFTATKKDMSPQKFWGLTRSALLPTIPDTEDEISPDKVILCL
Chain of Mitogen-activated protein kinase kinase kinase kinase 1 (Q92918 whole entry): as the sequence (Q92918 whole entry) above

Compound	DC50 [1] [nM]	DC50 [2] [nM]	Activity (MC-38 [3]) [%]	inhibition in vivo at 1 mg/kg (MC-38 [4]) [%]	inhibition in vivo at 1 mg/kg (MC-38 [5]) [%]	Activity (MC-38 [6]) [mm3]	Activity (MC-38 [7]) [mm3]	Activity (MC-38 [8]) [g]	Activity (MC-38 [9]) [%]	inhibition in vivo at 10 mg/kg (MC-38 [10]) [%]	Activity (MC-38 [11]) [mm3]	Activity (MC-38 [12]) [g]	Activity (MC-38 [13]) [g]	inhibition in vivo at 10 mg/kg (MC-38 [14]) [%]	Activity (MC-38 [15]) [%]	Activity (MC-38 [16]) [mm3]	Activity (MC-38 [17]) [%]	Activity (MC-38 [18]) [g]
CN1CCC(n2cc(-c3c[nH]c4ncc(-c5ccc(N6CCC(CC7CCN(C(=O)c8ccc(Cl)c(N9CCC(=O)NC9=O)c8)CC7)CC6)nc5)nc34)cn2)CC1	1.8	21.4	–	–	–	–	–	–	–	–	–	–	–	–	–	–	–	–
CCC(CC)n1cc(Oc2nc(-c3cc(C)c(C(=O)NCCN4CC[C@@H](F)C4)c(C)c3)cnc2N)cn1	–	–	-13.75	76.3	12.9	1349.36	1896.55	2.04	73.27	-22.4	367.21	0.48	2.27	72.6	68.3	423.84	-26.45	0.57
